Values quoted from earlier work as cited in PubChem BioAssay AID1259410 (Chemical Carcinogenesis Research Information System (CCRIS), 2018).

Tested on: rodent tumor promotion studies, tumor incidence
Experiment: CCRIS tumor promotion studies

For `CC(O)(CS(=O)(=O)c1ccc(F)cc1)C(=O)Nc1ccc(C#N)c(C(F)(F)F)c1` (stereo unspecified), the outcome (Carcinogen: 3,2'-DIMETHYL-4-AMINOBIPHENYL, 13394-86-0, Doses [Carcinogen]: 50 MG/KG BW ONCE/2 WK FOR FIRST 20 WK, Doses [Promoter]: 0, 10, 30 MG/KG BW BY GAVAGE 3X/WK FOR 40 WK BEGINNING 20 WK POST CARCINOGEN TREATMENT (STUDY DURATION: 60 WK), Doses [Promoter]: 0, 10, 30 MG/KG BW BY GAVAGE 3X/WK FOR 40 WK BEGINNING 20 WK POST CARCINOGEN TREATMENT (STUDY DURATION: 60 WK), Route [Carcinogen]: SUBCUTANEOUS, Route [Promoter]: ORAL, Species: RAT, Strain/Sex: F344/MALE) is given as “prostate (ventral): adenocarcinoma”.

In the case of `C[C@H](CCC(=O)O)[C@H]1CC[C@H]2[C@@H]3CC[C@@H]4C[C@H](O)CC[C@]4(C)[C@H]3C[C@H](O)[C@]12C`, the outcome (Carcinogen: AZOXYMETHANE, 25843-45-2, Doses [Carcinogen]: 7.4 MG/KG BW/WK FOR 5 WK, Doses [Promoter]: 0, 0.3% OF CHOW PELLETS FOR 45 WK BEGINNING FROM START OF ADMINISTRATION OF CARCINOGEN (STUDY DURATION: 45 WK), Route [Carcinogen]: SUBCUTANEOUS, Route [Promoter]: ORAL, Species: RAT, Strain/Sex: WISTAR/MALE) is listed as “colon: tumor”, the outcome (Carcinogen: DIETHYLNITROSAMINE, 55-18-5, 2-(ACETYLAMINO)FLUORENE, 6292-55-3, Carcinogen: DIETHYLNITROSAMINE, 55-18-5, 2-(ACETYLAMINO)FLUORENE, 6292-55-3, Doses [Carcinogen]: 200 MG/KG DEN FOLLOWED 2 WK LATER BY 0.03% 2AAF IN DIET FOR 2 WK PLUS 2 ML/KG CCL4 IN THE MIDDLE OF TREATMENT, Doses [Promoter]: 0.5% IN DIET BEGINNING 1 WK POST CARCINOGEN TREATMENT AND CONTINUING FOR DURATION OF TREATMENT (STUDY DURATION: 35 WK), Route [Carcinogen]: INTRAPERITONEAL, ORAL, Route [Promoter]: ORAL, Species: RAT, Strain/Sex: WISTAR/MALE) is listed as “liver: hepatocellular carcinoma or cholangiocarcinoma” and the outcome (Carcinogen: DIETHYLNITROSAMINE, 55-18-5, 2-ACETYLAMINO-FLUORENE, 53-96-3, CARBON TETRACHLORIDE, 56-23-5, Carcinogen: DIETHYLNITROSAMINE, 55-18-5, 2-ACETYLAMINO-FLUORENE, 53-96-3, CARBON TETRACHLORIDE, 56-23-5, Doses [Carcinogen]: 200 NMOL DEN ONCE FOLLOWED 2 WK LATER BY 0.03% 2AAF IN DIET PLUS 2 ML/MG CC14 IN THE MIDDLE OF 2AAF TREATMENT OF 3 WK, Doses [Promoter]: 0, 0.5% IN DIET BEGINNING POST CARCINOGEN TREATMENT AND CONTINUING FOR 30 WK (STUDY DURATION: 35 WK), Route [Carcinogen]: INTRAPERITONEAL, ORAL, Route [Carcinogen]: INTRAPERITONEAL, ORAL, Route [Promoter]: ORAL, Species: RAT, Strain/Sex: WISTAR/MALE) is listed as “liver: tumor”. The outcome (Carcinogen: N-METHYL-N-AMYLNITROSAMINE, 13256-07-0, Doses [Carcinogen]: 0.003% IN DRINKING WATER FOR 8 WK FOLLOWED BY TAP WATER FOR 20 WK, Doses [Promoter]: 0, 0.2% IN DIET BEGINNING POST CARCINOGEN TREATMENT AND CONTINUING FOR 20 WK (STUDY DURATION: 28 WK), Route [Carcinogen]: ORAL, Route [Promoter]: ORAL, Species: RAT, Strain/Sex: WISTAR/MALE) was “esophagus: papilloma”, the outcome (Carcinogen: N-METHYL-N-AMYLNITROSAMINE, 13256-07-0, Doses [Carcinogen]: 0.003% IN DRINKING WATER FOR 8 WK FOLLOWED BY TAP WATER FOR 20 WK, Doses [Promoter]: 0, 0.2% IN DIET FOR 8 WK SIMULTANEOUSLY WITH CARCINOGEN TREATMENT (STUDY DURATION: 28 WK), Route [Carcinogen]: ORAL, Route [Promoter]: ORAL, Species: RAT, Strain/Sex: WISTAR/MALE) was “esophagus: papilloma” and the outcome (Carcinogen: N-METHYL-N-AMYLNITROSAMINE, 13256-07-0, Doses [Carcinogen]: 0.003% IN DRINKING WATER FOR 8 WK FOLLOWED BY TAP WATER FOR 20 WK, Doses [Promoter]: 0, 0.2% IN DIET FOR DURATION OF STUDY (STUDY DURATION: 28 WK), Route [Carcinogen]: ORAL, Route [Promoter]: ORAL, Species: RAT, Strain/Sex: WISTAR/MALE) was “esophagus: carcinoma, papilloma”. The outcome (Doses [Carcinogen]: IR, Route [Carcinogen]: RECTAL, Route [Promoter]: RECTAL, Species: RAT, Strain/Sex: FEMALE) was “colon”.

For `COC(=O)/C=C/C=C/CCCCCCCCCCCCCO`, the outcome (Carcinogen: 7,12-DIMETHYLBENZ(A)ANTHRACENE, Doses [Carcinogen]: TOP, Route [Carcinogen]: DERMAL, Route [Promoter]: DERMAL, Species: MOUSE, Strain/Sex: MALE,FEMALE) is listed as “integumentary system (skin)”.

In the case of `CCOC(=O)C(C)(C)Oc1ccc(Cl)cc1`, the outcome (Carcinogen: DIETHYLNITROSAMINE [55-18-5], Doses [Carcinogen]: 200 MG/KG BW ONCE (STUDY DURATION: 24 WK), Doses [Promoter]: 0, 3000 PPM IN DIET FOR 22 WK BEGINNING 2 WK POST CARCINOGEN DOSE AND 1 WK PRIOR TO 2/3 PARTIAL HEPATECTOMY (STUDY DURAT, Route [Carcinogen]: INTRAPERITONEAL, Route [Promoter]: ORAL, Species: RAT, Strain/Sex: F344/MALE) is listed as “liver: hepatocellular adenoma”, the outcome (Carcinogen: DIETHYLNITROSAMINE [55-18-5], Doses [Carcinogen]: 200 MG/KG BW ONCE (STUDY DURATION: 48 WK), Doses [Promoter]: 0, 3000 PPM IN DIET FOR 46 WK BEGINNING 2 WK POST CARCINOGEN DOSE AND 1 WK PRIOR TO 2/3 PARTIAL HEPATECTOMY (STUDY DURAT, Route [Carcinogen]: INTRAPERITONEAL, Route [Promoter]: ORAL, Species: RAT, Strain/Sex: F344/MALE) is listed as “liver: hepatocellular adenoma” and the outcome (Carcinogen: DIETHYLNITROSAMINE [55-18-5], Doses [Carcinogen]: 200 MG/KG BW ONCE (STUDY DURATION: 52 WK), Doses [Promoter]: 0, 3000 PPM IN DIET FOR 46 WK BEGINNING 2 WK POST CARCINOGEN DOSE AND 1 WK PRIOR TO 2/3 PARTIAL HEPATECTOMY (STUDY DURAT, Route [Carcinogen]: INTRAPERITONEAL, Route [Promoter]: ORAL, Species: RAT, Strain/Sex: F344/MALE) is listed as “liver: hepatocellular adenoma”. The outcome (Carcinogen: DIETHYLNITROSAMINE, 55-18-5, Doses [Carcinogen]: 10 MG/KG IN SALINE ONCE 24 HR AFTER RECEIVING 70% PARTIAL HEPATECTOMIES, Doses [Promoter]: 0, 0.01% IN DIET FOR DURATION OF STUDY BEGINNING 2 WK POST CARCINOGEN DOSE (STUDY DURATION: 18 MO), Route [Carcinogen]: GAVAGE, Route [Promoter]: ORAL, Species: RAT, Strain/Sex: SPRAGUE-DAWLEY/FEMALE) was “liver: hepatocellular carcinoma”, the outcome (Carcinogen: DIETHYLNITROSAMINE, 55-18-5, Doses [Carcinogen]: 100 PPM IN DRINKING WATER FOR 2 WK, Doses [Promoter]: 0, 0.5% IN DIET BEGINNING 1 WK POST LAST CARCINOGEN DOSE AND CONTINUING FOR DURATION OF STUDY (STUDY DURATION: 32 WK), Route [Carcinogen]: ORAL, Route [Promoter]: ORAL, Species: RAT, Strain/Sex: WISTAR/MALE) was “liver: hepatocellular carcinoma” and the outcome (Carcinogen: DIETHYLNITROSAMINE, 55-18-5, Doses [Carcinogen]: 150 MG/KG BW ONCE, Doses [Promoter]: 0, 0.1% IN DIET FOR 37 WK BEGINNING 2 WK POST CARCINOGEN TREATMENT (STUDY DURATION: 39 WK), Route [Carcinogen]: INTRAPERITONEAL, Route [Promoter]: ORAL, Species: RAT, Strain/Sex: F344/MALE) was “liver: adenoma”.

For `CCCCCCCCCCCC(=O)OCCOC[C@@H](OCCO)[C@H]1OC[C@@H](OCCO)[C@H]1OCCO`, the outcome (Carcinogen: 7,12-DIMETHYLBENZ(A)ANTHRACENE, Doses [Carcinogen]: TOP, Route [Carcinogen]: DERMAL, Route [Promoter]: DERMAL, Species: MOUSE, Strain/Sex: MALE) is given as “integumentary system (skin)”.

For `CCCCCCCCC1=C(CCCCCCCC(=O)OC)C1`, the outcome (Doses [Carcinogen]: DIET, Doses [Promoter]: DIET, Route [Carcinogen]: ORAL, Route [Promoter]: ORAL, Species: FISH, Strain/Sex: RAINBOW TROUT/MALE,FEMALE) is listed as “liver”.

In the case of `Oc1c(Cl)c(Cl)c(Cl)c(Cl)c1Cl`, the outcome (Carcinogen: DIETHYLNITROSAMINE [55-18-5], Doses [Carcinogen]: 20 PPM IN DRINKING WATER FOR 13 WEEKS (STUDY DURATION: 42 WK), Doses [Promoter]: 300 PPM IN DIET FOR 25 WK BEGINNING 4 WK POST LAST CARCINOGEN DOSE (STUDY DURATION: 42 WK), Route [Carcinogen]: ORAL, Route [Promoter]: ORAL, Species: MOUSE, Strain/Sex: B6C3F1/MALE) is given as “liver: adenoma or carcinoma” and the outcome (Carcinogen: DIETHYLNITROSAMINE [55-18-5], Doses [Carcinogen]: 20 PPM IN DRINKING WATER FOR 13 WEEKS (STUDY DURATION: 42 WK), Doses [Promoter]: 600 PPM IN DIET FOR 25 WK BEGINNING 4 WK POST LAST CARCINOGEN DOSE (STUDY DURATION: 42 WK), Route [Carcinogen]: ORAL, Route [Promoter]: ORAL, Species: MOUSE, Strain/Sex: B6C3F1/MALE) is given as “liver: adenoma or carcinoma”.

In the case of `C=O`, the outcome (Carcinogen: Benzo[a]pyrene, 50-32-8, Doses [Carcinogen]: 150 mg applied once, Doses [Promoter]: 0 (acetone), 0.1, 0.5, 1.0 mg/mouse, 3x.wk for 26 wk, study duration 26 wk, Doses [Promoter]: 0 (acetone), 0.1, 0.5, 1.0 mg/mouse, 3x.wk for 26 wk, study duration 26 wk, Route [Carcinogen]: Not reported, Route [Promoter]: Dermal, Species: Mouse, Strain/Sex: CD-1/Female (30/Group)) is listed as “skin: results were negative” and the outcome (Carcinogen: N,N-Diethylnitrosamine, 55-18-5, Doses [Carcinogen]: 0.5 mg injections once a wk for 10 wk, Doses [Promoter]: 30 ppm weekly doses in various combinations from wk 12 for life of the animal, Route [Carcinogen]: Subcutaneous, Route [Promoter]: Inhalation, Species: Hamster, Strain/Sex: Syrian golden/Male (50/Group_) is listed as “nasal epithelium: results were negative”.
